Results reported in US20220235325A1, “STIMULATION OF DENDRITIC CELL ACTIVITY BY HOMOTAURINE AND ANALOGUES THEREOF” (Therapeutic Solutions International, Inc., priority 2021, published 2022).

How the values were obtained:
NK target cell line = assay: Natural killer cell activity of PBMC plated with StemVacs dendritic cells (flow cytometry Promega cytotoxicity assay); assay type: cell-based; details: 10 micrograms/ml; PBMC plus StemVacs umbilical cord derived dendritic cells; 12, 24, 36 hrs (FIG. 1)
Description: (§1) Peripheral blood mononuclear cells where obtained by ficoll centrifugation and plated with StemVacs umbilical cord derived dendritic cells. StemVacs was generated by culture of umbilical blood adherent cells with interleukin 4 and GM-CSF for 7 days with maturation step induced by 24 hour culture TLR agonist. Assessment of natural killer cell activity was performed subsequent to culture of cells with taurine (10 micrograms/ml) or homotaurine (10 micrograms/ml) for the indicated timepoints. Cytotoxicity against NK target cell line was performed using the flow cytometry Promega assay.

[1] = test system: interferon gamma production; assay: T cell activity of PBMC plated with StemVacs dendritic cells (ELISA of interferon gamma after phytohemagglutinin); assay type: cell-based; details: 10 micrograms/ml; PBMC plus StemVacs; 5 micrograms per ml phytohemagglutinin; 12, 24, 36 hrs (FIG. 2)
Description: as §1, with “StemVacs” left out, “T” for “natural killer”, “T” for “Cytotoxicity against NK target”, “activity” for “line”, “assessed by ELISA quantification of interferon gamma production after stimulation with 5 micrograms per ml of phytohemagglutinin.” for “performed using the flow cytometry Promega assay.”

monocytes = details: cited from earlier work
[2] = monocytes from human peripheral blood

| Compound | Ability of StemVacs to stimulate NK activity (cytotoxicity against NK target cell line) (NK target cell line) | Ability of StemVacs to stimulate T cell activity (interferon gamma production) [1] | FcgammaR-mediated cytokine production and antibody-dependent cellular cytotoxicity by monocytes (monocytes; 12 hour exposure) | Expression of ADCC associated receptors FcgammaRI, FcgammaRIIa and common gamma-subunit (monocytes; [2]) | Expression of the inhibitory FcgammaRIth molecule (monocytes; [2]) |
| --- | --- | --- | --- | --- | --- |
| NCCCS(=O)(=O)O [Homotaurine, homotaurine] | Increases Ability of StemVacs to Stimulate NK Activity | Increases Ability of StemVacs to Stimulate T Cell Activity | – | – | – |
| CCOCc1nc2c(N)nc3ccccc3c2n1CC(C)(C)O [R-848] | – | – | increased | upregulation | profound downregulation |
